Assay results from PubChem BioAssay AID248 (DTP/NCI, 2004).
Several values for one entry are separate records, joined by “and”; a condition that tells them apart may be missing. Equal values may be shown once. Inconclusive results and toxic doses are left out. Cut-off read from the data, not from the text of the source: active = T/C of 150% or more; inactive = T/C below 125%.

Tested on: L1210 leukemia ip in BDF1 mice, survival T/C
Assay: NCI In Vivo Anticancer Drug Screen. Data for tumor model L1210 Leukemia (intraperitoneal) in B6D2F1 (BDF1) mice
Details: endpoint: mean survival time, higher = longer survival
In short: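 Tumor was transplanted into mice, which were then dosed with test compound or vehicle alone. Survival was recorded for each group, and the treated figure was expressed relative to the control figure.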

[1] = dose: 100.0 mg/kg/injection, schedule: Q04DX002 (ip), vehicle: saline
[2] = dose: 100.0 mg/kg/injection, schedule: Q04DX003 (ip), vehicle: Klucel (hydroxypropylcellulose) (HPC)
[3] = dose: 200.0 mg/kg/injection, schedule: Q04DX003 (ip), vehicle: Klucel (hydroxypropylcellulose) (HPC)
[4] = dose: 400.0 mg/kg/injection, schedule: Q04DX003 (ip), vehicle: Klucel (hydroxypropylcellulose) (HPC)
[5] = dose: 100.0 mg/kg/injection, schedule: Q01DX001 (ip), vehicle: saline
[6] = dose: 200.0 mg/kg/injection, schedule: Q01DX001 (ip), vehicle: saline
[7] = dose: 100.0 mg/kg/injection, schedule: Q01DX009 (ip), vehicle: Klucel (hydroxypropylcellulose) (HPC)
[8] = dose: 200.0 mg/kg/injection, schedule: Q01DX009 (ip), vehicle: Klucel (hydroxypropylcellulose) (HPC)

Measured: T/C

CC(N)CCC(O)C(=O)O (configuration not stated)
inactive: [1] 95 % of control | dose: 200.0 mg/kg/injection, schedule: Q04DX002 (ip), vehicle: saline 100 % of control | dose: 400.0 mg/kg/injection, schedule: Q04DX002 (ip), vehicle: saline 107 % of control

Oc1ccccc1/C=N/n1cnnc1
inactive: [2] 98 % of control | [3] 100 % of control | [4] 100 % of control

CC(=O)Oc1ccc(Cl)cc1/C=C\C=O
inactive: [5] 100 % of control | [6] 101 % of control

CC(=O)c1ccc2c(c1)sc1ccccc12
inactive: dose: 50.0 mg/kg/injection, schedule: Q01DX001 (ip), vehicle: other 96 % of control | dose: 100.0 mg/kg/injection, schedule: Q01DX001 (ip), vehicle: other 96 % of control | dose: 200.0 mg/kg/injection, schedule: Q01DX001 (ip), vehicle: other 96 % of control | dose: 400.0 mg/kg/injection, schedule: Q01DX001 (ip), vehicle: other 87 % of control

COc1ccc(C(=O)/C(Br)=C/C(=O)O)cc1
inactive: dose: 12.5 mg/kg/injection, schedule: Q01DX009 (ip), vehicle: saline 102 % of control and 103 % of control and 108 % of control | dose: 12.5 mg/kg/injection, schedule: Q04DX003 (ip), vehicle: saline 94 % of control | dose: 25.0 mg/kg/injection, schedule: Q01DX009 (ip), vehicle: saline 98 % of control and 108 % of control (2×) | dose: 25.0 mg/kg/injection, schedule: Q04DX002 (ip), vehicle: saline 101 % of control | dose: 25.0 mg/kg/injection, schedule: Q04DX003 (ip), vehicle: saline 94 % of control | dose: 50.0 mg/kg/injection, schedule: Q01DX009 (ip), vehicle: saline 95 % of control and 110 % of control (2×) | dose: 50.0 mg/kg/injection, schedule: Q04DX002 (ip), vehicle: saline 105 % of control | dose: 50.0 mg/kg/injection, schedule: Q04DX003 (ip), vehicle: saline 108 % of control | [1] 112 % of control and 92 % of control

Clc1c2c(nc3ccccc13)CCCC2
inactive: [5] 95 % of control | [6] 95 % of control

O=C(NCc1ccc(Cl)cc1)Nc1cccc(F)c1
inactive: dose: 100.0 mg/kg/injection, schedule: Q01DX009 (ip), vehicle: gum acacia 105 % of control | dose: 200.0 mg/kg/injection, schedule: Q01DX009 (ip), vehicle: gum acacia 86 % of control | dose: 400.0 mg/kg/injection, schedule: Q01DX009 (ip), vehicle: gum acacia 98 % of control

O=C(Nc1ccccc1C(F)(F)F)c1ccc(Cl)c(Cl)c1
inactive: [7] 92 % of control | [2] 91 % of control | [8] 89 % of control | [3] 90 % of control | [4] 88 % of control

COc1cccc(C[P+](C/C=C/c2ccccc2)(c2ccccc2)c2ccccc2)c1
inactive: dose: 6.25 mg/kg/injection, schedule: Q04DX003 (ip), vehicle: Klucel (hydroxypropylcellulose) (HPC) 109 % of control | dose: 12.5 mg/kg/injection, schedule: Q04DX003 (ip), vehicle: Klucel (hydroxypropylcellulose) (HPC) 88 % of control | dose: 25.0 mg/kg/injection, schedule: Q04DX003 (ip), vehicle: Klucel (hydroxypropylcellulose) (HPC) 97 % of control

O=C(Nc1cccnc1)c1cccc([N+](=O)[O-])c1
inactive: dose: 200.0 mg/kg/injection, schedule: Q04DX002 (ip), vehicle: Klucel (hydroxypropylcellulose) (HPC) 108 % of control | dose: 400.0 mg/kg/injection, schedule: Q04DX002 (ip), vehicle: Klucel (hydroxypropylcellulose) (HPC) 97 % of control

CCCCOC(=O)CCCCC(=O)OCCCC
inactive: [7] 104 % of control | [8] 100 % of control | dose: 400.0 mg/kg/injection, schedule: Q01DX009 (ip), vehicle: Klucel (hydroxypropylcellulose) (HPC) 95 % of control

Nc1ccc(N=Nc2ccc(O)cc2)c(N)n1
inactive: [5] 92 % of control | [6] 107 % of control

Cc1ccc(S(=O)(=O)Nc2c(C)cc([N+](=O)[O-])cc2C)cc1
inactive: dose: 50.0 mg/kg/injection, schedule: Q01DX001 (ip), vehicle: carboxymethylcellulose (CMC) 119 % of control | dose: 100.0 mg/kg/injection, schedule: Q01DX001 (ip), vehicle: carboxymethylcellulose (CMC) 96 % of control | dose: 200.0 mg/kg/injection, schedule: Q01DX001 (ip), vehicle: carboxymethylcellulose (CMC) 102 % of control | dose: 400.0 mg/kg/injection, schedule: Q01DX001 (ip), vehicle: carboxymethylcellulose (CMC) 100 % of control

CC1OCC(C[N+](C)(C)C)O1 (configuration not stated)
inactive: dose: 0.09 mg/kg/injection, schedule: Q04DX002 (ip), vehicle: saline 95 % of control | dose: 0.18 mg/kg/injection, schedule: Q04DX002 (ip), vehicle: saline 106 % of control | dose: 0.37 mg/kg/injection, schedule: Q04DX002 (ip), vehicle: saline 95 % of control | dose: 0.75 mg/kg/injection, schedule: Q04DX002 (ip), vehicle: saline 103 % of control and 109 % of control | dose: 1.5 mg/kg/injection, schedule: Q04DX002 (ip), vehicle: saline 100 % of control and 106 % of control

CN(CCO)CC1COc2ccccc2O1 (configuration not stated)
inactive: dose: 50.0 mg/kg/injection, schedule: Q01DX001 (ip), vehicle: saline 97 % of control | [5] 105 % of control | [6] 88 % of control

CCOC(=O)C(=O)Nc1ccccc1C(=O)O
inactive: dose: 100.0 mg/kg/injection, schedule: Q04DX009 (ip), vehicle: saline with Tween-80 96 % of control | dose: 200.0 mg/kg/injection, schedule: Q04DX009 (ip), vehicle: saline with Tween-80 103 % of control | dose: 400.0 mg/kg/injection, schedule: Q04DX009 (ip), vehicle: saline with Tween-80 102 % of control

CCN1CCCC(OC(=O)c2cccc3[nH]ccc23)C1 (configuration not stated)
inactive: dose: 100.0 mg/kg/injection, schedule: Q01DX001 (ip), vehicle: Klucel (hydroxypropylcellulose) (HPC) 93 % of control | [2] 103 % of control | dose: 200.0 mg/kg/injection, schedule: Q01DX001 (ip), vehicle: Klucel (hydroxypropylcellulose) (HPC) 97 % of control | [3] 101 % of control | dose: 400.0 mg/kg/injection, schedule: Q01DX001 (ip), vehicle: Klucel (hydroxypropylcellulose) (HPC) 98 % of control | [4] 101 % of control

OC1C2CC3C(C2)C13 (configuration not stated)
inactive: dose: 100.0 mg/kg/injection, schedule: Q01DX009 (ip), vehicle: saline 102 % of control | dose: 200.0 mg/kg/injection, schedule: Q01DX009 (ip), vehicle: saline 96 % of control | dose: 400.0 mg/kg/injection, schedule: Q01DX009 (ip), vehicle: saline 98 % of control

COC(=O)c1[nH]nc(-c2ccccc2)c1N
inactive: dose: 100.0 mg/kg/injection, schedule: Q04DX003 (ip), vehicle: saline with Tween-80 101 % of control | dose: 200.0 mg/kg/injection, schedule: Q04DX003 (ip), vehicle: saline with Tween-80 93 % of control | dose: 400.0 mg/kg/injection, schedule: Q04DX003 (ip), vehicle: saline with Tween-80 90 % of control

CC(=O)Nc1nc[nH]c1C(N)=O
inactive: dose: 100.0 mg/kg/injection, schedule: Q01DX001 (ip), vehicle: saline with Tween-80 106 % of control | dose: 200.0 mg/kg/injection, schedule: Q01DX001 (ip), vehicle: saline with Tween-80 105 % of control | dose: 400.0 mg/kg/injection, schedule: Q01DX001 (ip), vehicle: saline with Tween-80 100 % of control

COc1ccc(OC)c(C(=O)CCCCCCCCC(=O)O)c1
inactive: [2] 109 % of control | [3] 95 % of control | [4] 101 % of control

CC(=O)Nc1c(Cc2cc(O)c3ncccc3c2NC(C)=O)cc(O)c2ncccc12
inactive: dose: 75.0 mg/kg/injection, schedule: Q01DX001 (ip), vehicle: other 96 % of control | dose: 150.0 mg/kg/injection, schedule: Q01DX001 (ip), vehicle: other 100 % of control | dose: 300.0 mg/kg/injection, schedule: Q01DX001 (ip), vehicle: other 103 % of control
